Residues, ends and D or L forms follow the SMILES beside them.
Test system: Vero-E6 cells
Assay: cells
Format: cell-based
Conditions: for activation at 10 µM: Chlorocebus sabaeus, Vero C1008, 24 h, read-out: PL_Result

Compound: CCCCCCCN(CC)CCCC(O)c1ccc(NS(C)(=O)=O)cc1 (centres unmarked) [SPE_A74391928]
- activation at 10 µM: -5.8%

Compound: C=C(C)CN1CC[C@]23c4c5ccc(O)c4O[C@H]2c2[nH]c4ccccc4c2C[C@@]3(O)C1C5 [SPE_A75769826]
- activation at 10 µM: 35%

Compound: CCn1cc(C(=O)O)c(=O)c2cc(F)c(N3CCNC(C)C3)c(F)c21 (centres unmarked) [SPE_A75850590]
- activation at 10 µM: -1.78%

Compound: CCCNC(=O)N1N=C(c2ccc(N)cc2)c2cc3c(cc2C1C)OCO3 (centres unmarked) [SPE_A77218119]
- activation at 10 µM: 7.61%

Compound: CCCCCCCCCCCCCCCC(=O)OC(CC(=O)O)C[N+](C)(C)C (centres unmarked) [SPE_A77577770]
- activation at 10 µM: 3.73%

Compound: C[C@]12C=CC(=O)C=C1CCC1C2[C@@H](O)C[C@@]2(C)C1CC[C@]2(O)C(=O)COC(=O)CCC(=O)O (some centres unmarked) [SPE_A78391468]
- activation at 10 µM: 3.52%

Compound: COc1ccc(OC)c(C(O)CNC(=O)CN)c1 (centres unmarked) [SPE_A79981887]
- activation at 10 µM: 8.02%

Compound: Clc1ccc(C(OCCN2CCCCC2)c2ccccc2)cc1 (centres unmarked) [SPE_A80908310]
- activation at 10 µM: 72.5%

Compound: CC(C(=O)O)c1cccc(Oc2ccccc2)c1 (centres unmarked) [SPE_A81129465]
- activation at 10 µM: 5.17%

Compound: CC(C)CCN1c2nc(Nc3cc(F)c(O)c(F)c3)ncc2N(C)C(=O)C1C (centres unmarked) [SPE_A81370665]
- activation at 10 µM: -5.78%

Compound: Cc1ccc(N2CCN(CCC3NC(=O)c4ccccc43)CC2)cc1C (centres unmarked) [SPE_A82013137]
- activation at 10 µM: -6.23%

Compound: CC(=O)Oc1cc2c(s1)CCN(C(C(=O)C1CC1)c1ccccc1F)C2 (centres unmarked) [SPE_A83029242]
- activation at 10 µM: -4.76%

Compound: Cc1cc(C)cc(C(=O)OC2CC3CCC(C2)N3C)c1 (centres unmarked) [SPE_A84389633]
- activation at 10 µM: 9.75%

Compound: COC(=O)C1=C(C)NC(C)=C(C(=O)OCC(C)C)C1c1ccccc1[N+](=O)[O-] (centres unmarked) [SPE_A84465106]
- activation at 10 µM: 0.581%

Compound: O=C1NC(O)CCN1[C@@H]1O[C@H](CO)[C@@H](O)[C@H]1O (some centres unmarked) [SPE_A86248581]
- activation at 10 µM: -8.11%

Compound: O=C(NC(Cc1c[nH]c2ccccc12)C(=O)O)c1ccc(Cl)cc1 (centres unmarked) [SPE_A87983072]
- activation at 10 µM: -4.45%

Compound: COc1cc(Oc2ccnc3cc(OC)c(OC)cc23)ccc1NC(=O)NC(C)c1nccs1 (centres unmarked) [SPE_A88787317]
- activation at 10 µM: -0.267%

Compound: COc1ccc(CC2NCCc3cc(OC)c(OC)cc32)cc1OC (centres unmarked) [SPE_A91831168]
- activation at 10 µM: -15.9%

Compound: Cc1cccc(C)c1NC(=O)C(C)N (centres unmarked) [SPE_A92670106]
- activation at 10 µM: -8.17%

Compound: CC(=O)NC1[C@@H](O)OC(CO)[C@@H](O)[C@H]1O (some centres unmarked) [SPE_A92872453]
- activation at 10 µM: -7.39%

Compound: CCC(Oc1ccc(Cl)cc1)C(=O)OC1CC2CCC(C1)N2C (centres unmarked) [SPE_A92933783]
- activation at 10 µM: -0.394%

Compound: Clc1ccc(C(Cn2ccnc2)OCc2c(Cl)cccc2Cl)c(Cl)c1 (centres unmarked) [SPE_A93353767]
- activation at 10 µM: 0.354%

Compound: NC1CCN(c2c(F)cc3c(=O)c(C(=O)O)cn(C4CC4)c3c2Cl)C1 (centres unmarked) [SPE_A93964801]
- activation at 10 µM: -2.8%

Compound: C[C@H]1CO[C@@H]2Cn3cc(C(=O)NCc4ccc(F)cc4F)c(=O)c(O)c3C(=O)N12 [SPE_A95114378]
- activation at 10 µM: -1.46%

Compound: CC1Cc2ccccc2N1NC(=O)c1ccc(Cl)c(S(N)(=O)=O)c1 (centres unmarked) [SPE_A95869247]
- activation at 10 µM: -11.5%

Compound: Cc1ccc(C)c(C(O)CNC(C)C)c1 (centres unmarked) [SPE_A98083480]
- activation at 10 µM: 3.82%

Compound: CCCc1c(-c2ccc(O)cc2)nn(-c2ccc(O)cc2)c1-c1ccc(O)cc1 [SPE_K00312224]
- activation at 10 µM: 1.41%

Compound: Cc1cc2nc3c(=O)[nH]c(=O)nc-3n(C)c2cc1C=O [SPE_K00486786]
- activation at 10 µM: -6.31%

Compound: CN(C)Cc1ccc(-c2nc3cccc4c3n2CCNC4=O)cc1 [SPE_K00615600]
- activation at 10 µM: 6.53%

Compound: CCC[C@H](N[C@@H](C)C(=O)N1[C@H](C(=O)O)C[C@@H]2CCCC[C@@H]21)C(=O)O [SPE_K00768353]
- activation at 10 µM: -9.94%

Compound: Nc1nc(NC2CC2)cc(-c2cccc(Cl)c2Cl)n1 [SPE_K01054709]
- activation at 10 µM: -5.46%

Compound: Cn1nc(-c2ccc(C(F)(F)F)cc2)nc2c(=O)n(C)c(=O)nc1-2 [SPE_K01129913]
- activation at 10 µM: -6.15%

Compound: COC(=O)CCC(=O)CN [SPE_K01292611]
- activation at 10 µM: -7.57%

Compound: Nc1ncnc2c1ncn2[C@@H]1O[C@H](CO)[C@@H](O)[C@H]1O [SPE_K01577834]
- activation at 10 µM: -3.02%

Compound: CCS(=O)(=O)c1cccc(-c2cc(C(=O)NC3CCN(C)CC3)c(C)c3[nH]c4ncc(C)cc4c23)c1 [SPE_K01683783]
- activation at 10 µM: -6.51%

Compound: CC(C)=CCC[C@](C)(O[C@@H]1O[C@H](CO)[C@@H](O)[C@H](O)[C@H]1O)[C@H]1CC[C@]2(C)[C@@H]1[C@H](O)C[C@@H]1[C@@]3(C)CC[C@H](O)C(C)(C)[C@@H]3CC[C@]12C [SPE_K01942833]
- activation at 10 µM: -8.36%

Compound: Cc1[nH]c2ccccc2c1CCNCc1ccc(/C=C/C(=O)NO)cc1 [SPE_K02130563]
- activation at 10 µM: -9.42%

Compound: COc1ccccc1C(=O)Nc1cccc(NC(=O)c2cccc(C)c2)c1 [SPE_K02160913]
- activation at 10 µM: -4.26%

Compound: C[C@@H](O)[C@H](N)C(=O)N1CCC[C@H]1C(=O)N1CCC[C@H]1C(=O)N[C@H](C(N)=O)[C@@H](C)O [SPE_K02206208] (H-TPPT-NH2)
- PL_Result: -5.35

Compound: CCCCc1ccc2[nH]c(NC(=O)OC)nc2c1 [SPE_K02407574]
- activation at 10 µM: -11.6%

Compound: COc1ccc2[nH]c3nnc(C)c-3c(NCCOCCO)c2c1 [SPE_K02460719]
- activation at 10 µM: -9.99%

Compound: CC(=O)O[C@]1(C(C)=O)CC[C@H]2[C@@H]3C[C@H](C)C4=CC(=O)C=C[C@]4(C)[C@@]3(F)[C@@H](O)C[C@@]21C [SPE_K02528732]
- activation at 10 µM: -9.55%

Compound: O=C1N[C@@H]2[C@@H](O)[C@@H](O)[C@H](O)[C@@H](CO)N2C1=O [SPE_K02898090]
- activation at 10 µM: 7%

Compound: c1ccc(CNCc2ccc(CN3CCCNCCNCCCNCC3)cc2)nc1 [SPE_K03019184]
- activation at 10 µM: -0.191%

Compound: CCCCCCCCCCCCCCCCCCCCCCCCCCCCO [SPE_K03083257]
- activation at 10 µM: -15.2%

Compound: CCN1C[C@H](C)n2c(c(O)c3c(=O)n(Cc4ccc(F)c(Cl)c4)nc(C(=O)NC)c32)C1=O [SPE_K03128512]
- activation at 10 µM: 7.85%

Compound: CC[N+](CC)(CC)CCOc1ccc(/C=C/c2ccccc2)cc1 [SPE_K03128577]
- activation at 10 µM: 8.41%

Compound: O=C(Nc1c(Cl)cncc1Cl)c1ccc(OC(F)F)c(OCC2CC2)c1 [SPE_K03194791]
- activation at 10 µM: -2.86%

Compound: NCCCCCCCCCCNS(=O)(=O)c1cccc2c(Cl)cccc12 [SPE_K03301001]
- activation at 10 µM: 2.75%

Compound: COc1cc(C=O)c([N+](=O)[O-])cc1OC [SPE_K03564313]
- activation at 10 µM: 2.17%

Compound: C/C(=C\c1csc(C)n1)[C@@H]1C[C@@H]2O[C@]2(C)CCC[C@H](C)[C@H](O)[C@@H](C)C(=O)C(C)(C)[C@@H](O)CC(=O)N1 [SPE_K03601870]
- activation at 10 µM: -10.6%

Compound: CCN(CCNC(=O)Nc1ccccc1Br)c1cccc(C)c1 [SPE_K03665769]
- activation at 10 µM: -3.7%

Compound: Nc1ncc(Cc2ccc(Br)cc2)s1 [SPE_K03808106]
- activation at 10 µM: -0.249%

Compound: N[C@@H](CC(=O)N1CCn2c(nnc2C(F)(F)F)C1)Cc1n[nH]c2c(F)c(F)ccc12 [SPE_K04035716]
- activation at 10 µM: -1.31%

Compound: COc1c(O)cc2c(c1O)[C@@H]1O[C@H](CO)[C@@H](O)[C@H](O)[C@H]1OC2=O [SPE_K04176066]
- activation at 10 µM: 1.1%

Compound: CC(C)C[C@@H](C(=O)N[C@@H](Cc1ccc(OCc2ccccc2)cc1)C(=O)NC(C)(C)C)N(C)Cc1ccc(C(C)(C)C)cc1 [SPE_K04426574]
- activation at 10 µM: -3.22%

Compound: Clc1ccc(Cn2c(CN3CCCC3)nc3ccccc32)cc1 [SPE_K04704168]
- activation at 10 µM: 18%

Compound: C[C@H](NC(=O)/C(C#N)=C/c1cccc(Br)n1)c1ccccc1 [SPE_K05445342]
- activation at 10 µM: 3.2%

Compound: Cc1nnc(C(=O)NC(C)(C)c2nc(C(=O)NCc3ccc(F)cc3)c(O)c(=O)n2C)o1 [SPE_K05658747]
- activation at 10 µM: -12.8%

Compound: CCCCCCCCCCCCOS(=O)(=O)O [SPE_K05680146]
- activation at 10 µM: 12.1%

Compound: Cc1cccc(C)c1NC(=O)c1ccccc1C(=O)O [SPE_K05724540]
- activation at 10 µM: -3.96%

Compound: COC(F)(F)C(Cl)Cl [SPE_K06152156]
- activation at 10 µM: -2.25%

Compound: CCN(CC)CCOCCOC(=O)C1(c2ccccc2)CCCC1 [SPE_K06181161]
- activation at 10 µM: 11.3%

Compound: CC[C@@H]([C@H](C)O)n1ncn(-c2ccc(N3CCN(c4ccc(OC[C@@H]5CO[C@@](Cn6cncn6)(c6ccc(F)cc6F)C5)cc4)CC3)cc2)c1=O [SPE_K06222852]
- activation at 10 µM: -4.55%

Compound: Cc1cc(/C=C/C#N)cc(C)c1Nc1ccnc(Nc2ccc(C#N)cc2)n1 [SPE_K06240250]
- activation at 10 µM: -8.07%

Compound: C[C@@H](c1ncncc1F)[C@](O)(Cn1cncn1)c1ccc(F)cc1F [SPE_K06557128]
- activation at 10 µM: -4.59%

Compound: NC(=O)C[C@H](N)C(=O)O [SPE_K06665116]
- activation at 10 µM: -6.33%

Compound: COc1ccc(-c2cc(=O)c3c(OC)c(OC)c(OC)c(OC)c3o2)cc1OC [SPE_K06753942]
- activation at 10 µM: 17.9%

Compound: CC(C)Cn1cnc2c1c(=O)n(C)c(=O)n2C [SPE_K06762493]
- activation at 10 µM: -8.79%

Compound: O=C(Nc1cc(Cl)cc(Cl)c1O)c1c(O)c(Cl)cc(Cl)c1Cl [SPE_K07283971]
- activation at 10 µM: -4.07%

Compound: Cc1cc(NCCO)nc(-c2ccc(Br)cc2)n1 [SPE_K07656463]
- activation at 10 µM: -1.9%

Compound: CC[C@H](CO)Nc1nc(NCc2ccccc2)c2ncn(C(C)C)c2n1 [SPE_K07691486]
- activation at 10 µM: 5.8%

Compound: CC(C)(C)OC(=O)N[C@H]1CCCCC/C=C\[C@@H]2C[C@@]2(C(=O)NS(=O)(=O)C2CC2)NC(=O)[C@@H]2C[C@@H](OC(=O)N3Cc4cccc(F)c4C3)CN2C1=O [SPE_K08111240]
- activation at 10 µM: -7.46%

Compound: Cc1cccc2c1CC[C@H](CN1CCC(c3c(Cl)cccc3Cl)CC1)C[C@@H]2O [SPE_K08333979]
- activation at 10 µM: -2.39%

Compound: O=C(O)c1cn(-c2ccc(F)cc2)c2cc(N3CCNCC3)c(F)cc2c1=O [SPE_K08525451]
- activation at 10 µM: -3.13%

Compound: O=C(O)CCn1c2c(c3ccccc31)C[C@H](NS(=O)(=O)c1ccc(F)cc1)CC2 [SPE_K08586861]
- activation at 10 µM: -12%

Compound: Cc1ccc(-n2sc(=O)n(Cc3ccc(F)cc3)c2=O)cc1 [SPE_K08893438]
- activation at 10 µM: 8.86%

Compound: CC(C)[C@@H](C)/C=C/[C@@H](C)[C@H]1CC[C@H]2C3=CC=C4C[C@@H](O)CC[C@]4(C)[C@H]3CC[C@]12C [SPE_K09161066]
- activation at 10 µM: -4.6%

Compound: Oc1c(I)cc(Cl)c2cccnc12 [SPE_K09255212]
- activation at 10 µM: 3.03%

Compound: COCC(=O)O[C@]1(CCN(C)CCCc2nc3ccccc3[nH]2)CCc2cc(F)ccc2[C@@H]1C(C)C [SPE_K09549677]
- activation at 10 µM: 97.4%

Reference: publication PMC13083723 (Patterns, 2026)
